This series concerns rabbit eye (conjunctival sac). The arrangement: species or system albino rabbits of the New Zealand strain. The note with it: in vivo. The procedure:
six male albino rabbits of the New Zealand strain were incorporated in this study. A dosage of 0.1 ml. of AMR-69-62 (2% Aqueous Solution) was introduced into the conjunctival sac of the left eye of each rabbit; the right eye served as an untreated control. The six treated rabbit eyes were scored against the corresponding untreated control eyes according to the method of Draize (Draize, J.H., in Appraisal of the Safety of Chemicals in Foods, Drugs and Cosmetics, Assoc. of Food and Drug Officials of U.S., Austin, Tex., 1959) at 0.5 minutes, 30 minutes and 3.0 hours after administration of AMR-69.

The results in this text go back to US3974281A, “5-Methyl-1-phenyl-2-(1H)-pyridone compositions and methods of use” (priority 1974, dated 1976).

On to `Cc1ccc(=O)n(-c2ccccc2)c1` [AMR-69, 5-methyl-1-phenyl-2-(1H)-pyridone], for which the “Draize evaluation of eye irritation” value was “would not be considered as an irritant to the eye”, the “group mean Draize score at 0.5 minutes” value is listed as 2.0, the “group mean Draize score at 30 minutes” value is on record as 0.0 and the “group mean Draize score at 3.0 hours” value is 0.0.
